This assay concerns γδ-T cells. Put plainly: Ex vivo expansion of human γδ-T cells from healthy donor PBMC with C-HDMPP and IL-2, flow cytometry at day 21. Format: cell-based. An excerpt:
Peripheral blood mononuclear cells (PBMC) were isolated from peripheral blood obtained by venipuncture from a healthy individual. Fresh blood was collected using standard aseptic technique. PBMC were isolated utilizing a standard density gradient centrifugation method. PBMC were washed in PBS, then resuspended in complete RPMI-1640 supplemented with 10% characterized fetal bovine serum and PCN+streptomycin.
Cell cultures were initiated by seeding PBMC into tissue culture flasks to which recombinant human IL-2 was added. γδ-T cell expansion was initiated by the addition of C-HDMPP. Cultures were maintained at 37° C., 5% CO2 in incubators situated within a BSL2 containment environment. Fresh media was added as needed to keep cell concentration at approximately 1×10^6 cells/ml. Human IL-2 was added every 5 days. Cultures were maintained for 21 days at which time they were analyzed by flow cytometry. […] At 100 nM C-HDMPP the cultures were ≥96% pure γδ-T cells with viability ≥96%.
Background: In flow cytometry, cells or beads pass a laser one at a time.

The mark [1] stands for this setting: 100 nM C-HDMPP, 21 days of culture with IL-2, flow cytometry.

On to `C/C(=C\CCP(=O)(O)OP(=O)(O)O)CO` [C-HDMPP], for which, under setting [1], the “purity of γδ-T cells in the cultures” value is listed as no less than 96% and the “viability of the cultures” value was no less than 96%. Further, the “γδ-T cell growth (expansion) versus concentration” value (nanomolar concentrations, 21 days, FIG. 1) is given as “can be titrated to promote optimal γδ-T cell growth while avoiding overstimulation”.

These data come from patent publication US20210338728A1, “METHODS AND COMPOSITIONS FOR THE EXPANSION AND USE OF ALLOGENEIC GAMMA/DELTA-T CELLS” (Phosphogam, Inc., priority 2018, published 2021).
